Legend:
bedstraw = assay: Test B pre/postemergence bedstraw; format: in vivo, Galium aparine; details: for Bedstraw plant response rating: scale of 0 to 10 where 0 is no effect and 10 is complete control
Procedure, shortened: (§1)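 Test chemicals in a non-phytotoxic solvent mixture with surfactant were sprayed preemergence onto planted seeds and postemergence onto plants 2 to 18 cm tall (1- to 4-leaf stage). After twelve to sixteen days in a greenhouse, injury was visually rated against untreated controls from 0 (no effect) to 10 (complete control).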

blackgrass = assay: Test B pre/postemergence blackgrass; format: in vivo, Alopecurus myosuroides; details: for Blackgrass plant response rating: scale of 0 to 10 where 0 is no effect and 10 is complete control
Procedure, shortened: as §1

surinam grass = assay: Test B pre/postemergence surinam grass; format: in vivo, Brachiaria decumbens; details: for B. signalgrass plant response rating: scale of 0 to 10 where 0 is no effect and 10 is complete control
Procedure, shortened: as §1

corn = assay: Test B pre/postemergence corn; format: in vivo, Zea mays; details: for Corn plant response rating: scale of 0 to 10 where 0 is no effect and 10 is complete control
Procedure, shortened: as §1

crabgrass = assay: Test B pre/postemergence crabgrass; format: in vivo, Digitaria sanguinalis; details: for Crabgrass plant response rating: scale of 0 to 10 where 0 is no effect and 10 is complete control
Procedure, shortened: as §1

giant foxtail = assay: Test B pre/postemergence giant foxtail; format: in vivo, Setaria faberii; details: for Giant foxtail plant response rating: scale of 0 to 10 where 0 is no effect and 10 is complete control
Procedure, shortened: as §1

morningglory = assay: Test B pre/postemergence morningglory; format: in vivo, Ipomoea hederacea; details: for Morningglory plant response rating: scale of 0 to 10 where 0 is no effect and 10 is complete control
Procedure, shortened: as §1

pigweed = assay: Test B pre/postemergence pigweed; format: in vivo, Amaranthus retroflexus; details: for Redroot pigweed plant response rating: scale of 0 to 10 where 0 is no effect and 10 is complete control
Procedure, shortened: as §1

rape = assay: Test B pre/postemergence rape; format: in vivo, Brassica napus; details: for Rape plant response rating: scale of 0 to 10 where 0 is no effect and 10 is complete control
Procedure, shortened: as §1

soybean = assay: Test B pre/postemergence soybean; format: in vivo, Glycine max; details: for Soybean plant response rating: scale of 0 to 10 where 0 is no effect and 10 is complete control
Procedure, shortened: as §1

velvetleaf = assay: Test B pre/postemergence velvetleaf; format: in vivo, Abutilon theophrasti; details: for Velvetleaf plant response rating: scale of 0 to 10 where 0 is no effect and 10 is complete control
Procedure, shortened: as §1

wheat = assay: Test B pre/postemergence wheat; format: in vivo, Triticum aestivum; details: for Wheat plant response rating: scale of 0 to 10 where 0 is no effect and 10 is complete control
Procedure, shortened: as §1

wild oat = assay: Test B pre/postemergence wild oat; format: in vivo, Avena fatua; details: for Wild oats plant response rating: scale of 0 to 10 where 0 is no effect and 10 is complete control
Procedure, shortened: as §1

purple nutsedge = assay: Test B pre/postemergence purple nutsedge; format: in vivo, Cyperus rotundus; details: for Nutsedge plant response rating: scale of 0 to 10 where 0 is no effect and 10 is complete control
Procedure, shortened: as §1

rice = assay: Test B flood test rice; format: in vivo, Oryza sativa
Procedure, shortened: (§2)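 Read-out is a visual response score from 0 (no effect) to 10 (complete control), assigned by comparison with untreated controls. Treatment was applied at the 2-leaf stage, and plants stayed in the greenhouse for twelve to sixteen days before scoring.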

duck salad = assay: Test B flood test duck salad; format: in vivo, Heteranthera limosa
Procedure, shortened: as §2

[1] = Postemergence, Rate 125 g/ha, scale 0 to 10, 0 is no effect, 10 is complete control
[2] = Postemergence, Rate 250 g/ha, scale 0 to 10, 0 is no effect, 10 is complete control
[3] = Preemergence, Rate 62 g/ha, scale 0 to 10 (0 no effect, 10 complete control)
[4] = Rate 500 g/ha, Postemergence, scale 0 to 10, 0 no effect, 10 complete control
[5] = Postemergence (flood test), Rate 125 g/ha, scale 0 to 10, 0 is no effect, 10 is complete control
[6] = Rate 62 g/ha, Postemergence (flood test species), scale of 0 to 10 where 0 is no effect and 10 is complete control
[7] = Rate 500 g/ha, listed under Postemergence (flood test species), scale 0 to 10, 0 no effect, 10 complete control
[8] = flood test species, listed under Postemergence, Rate 250 g/ha, scale 0 to 10, 0 is no effect, 10 is complete control

SMILES: CCN(CC)C(=O)n1oc(=O)n(-c2ccccc2C)c1=O [Compound 364]
- Plant response rating, Bedstraw (bedstraw; [1]): 0
- Plant response rating, Bedstraw (bedstraw; [2]): 0
- Plant response rating, Bedstraw (bedstraw; [3]): 0
- Bedstraw plant response rating (0 to 10 scale) (bedstraw; Preemergence, Rate 125 g/ha): 0
- Bedstraw plant response rating (bedstraw; Preemergence, Rate 250 g/ha): 0
- Bedstraw plant response rating (bedstraw; Preemergence, Rate 500 g/ha): 3
- Bedstraw plant response rating (bedstraw; Rate 62 g/ha, Postemergence): 0
- Plant response rating, Bedstraw (bedstraw; [4]): 0
- Plant response rating, Blackgrass (blackgrass; [1]): 0
- Plant response rating, Blackgrass (blackgrass; [2]): 0
- Plant response rating, Blackgrass (blackgrass; [3]): 0
- Blackgrass plant response rating (0 to 10 scale) (blackgrass; Preemergence, Rate 125 g/ha): 0
- Blackgrass plant response rating (blackgrass; Preemergence, Rate 250 g/ha): 1
- Blackgrass plant response rating (blackgrass; Preemergence, Rate 500 g/ha): 4
- Blackgrass plant response rating (blackgrass; Rate 62 g/ha, Postemergence): 0
- Plant response rating, Blackgrass (blackgrass; [4]): 2
- Plant response rating, B. signalgrass (surinam grass; [1]): 0
- Plant response rating, B. signalgrass (surinam grass; [2]): 0
- Plant response rating, B. signalgrass (surinam grass; [3]): 0
- B. signalgrass plant response rating (0 to 10 scale, 0 is no effect, 10 is complete control) (surinam grass; Preemergence, Rate 125 g/ha): 0
- B. signalgrass plant response rating (surinam grass; Preemergence, Rate 250 g/ha): 0
- B. signalgrass plant response rating (surinam grass; Preemergence, Rate 500 g/ha): 3
- B. signalgrass plant response rating (surinam grass; Rate 62 g/ha, Postemergence): 0
- Plant response rating, B. signalgrass (surinam grass; [4]): 1
- Plant response rating, Corn (corn; [1]): 0
- Plant response rating, Corn (corn; [2]): 2
- Plant response rating, Corn (corn; [3]): 0
- Corn plant response rating (0 to 10 scale) (corn; Preemergence, Rate 125 g/ha): 0
- Corn plant response rating (corn; Preemergence, Rate 250 g/ha): 0
- Corn plant response rating (corn; Preemergence, Rate 500 g/ha): 0
- Corn plant response rating (corn; Rate 62 g/ha, Postemergence): 0
- Plant response rating, Corn (corn; [4]): 3
- Plant response rating, Crabgrass (crabgrass; [1]): 0
- Plant response rating, Crabgrass (crabgrass; [2]): 0
- Plant response rating, Crabgrass (crabgrass; [3]): 0
- Crabgrass plant response rating (0 to 10 scale) (crabgrass; Preemergence, Rate 125 g/ha): 0
- Crabgrass plant response rating (crabgrass; Preemergence, Rate 250 g/ha): 2
- Crabgrass plant response rating (crabgrass; Preemergence, Rate 500 g/ha): 5
- Crabgrass plant response rating (crabgrass; Rate 62 g/ha, Postemergence): 0
- Plant response rating, Crabgrass (crabgrass; [4]): 2
- Plant response rating, Giant foxtail (giant foxtail; [1]): 3
- Plant response rating, Giant foxtail (giant foxtail; [2]): 6
- Plant response rating, Giant foxtail (giant foxtail; [3]): 3
- Giant foxtail plant response rating (0 to 10 scale) (giant foxtail; Preemergence, Rate 125 g/ha): 6
- Giant foxtail plant response rating (giant foxtail; Preemergence, Rate 250 g/ha): 9
- Giant foxtail plant response rating (giant foxtail; Preemergence, Rate 500 g/ha): 10
- Giant foxtail plant response rating (giant foxtail; Rate 62 g/ha, Postemergence): 0
- Plant response rating, Giant foxtail (giant foxtail; [4]): 8
- Plant response rating, Morningglory (morningglory; [1]): 0
- Plant response rating, Morningglory (morningglory; [2]): 0
- Plant response rating, Morningglory (morningglory; [3]): 0
- Morningglory plant response rating (0 to 10 scale) (morningglory; Preemergence, Rate 125 g/ha): 0
- Morningglory plant response rating (morningglory; Preemergence, Rate 250 g/ha): 0
- Morningglory plant response rating (morningglory; Preemergence, Rate 500 g/ha): 0
- Morningglory plant response rating (morningglory; Rate 62 g/ha, Postemergence): 0
- Plant response rating, Morningglory (morningglory; [4]): 4
- Plant response rating, Redroot pigweed (pigweed; [1]): 0
- Plant response rating, Redroot pigweed (pigweed; [2]): 0
- Plant response rating, Redroot pigweed (pigweed; [3]): 0
- Redroot pigweed plant response rating (0 to 10 scale) (pigweed; Preemergence, Rate 125 g/ha): 0
- Redroot pigweed plant response rating (pigweed; Preemergence, Rate 250 g/ha): 0
- Redroot pigweed plant response rating (pigweed; Preemergence, Rate 500 g/ha): 0
- Redroot pigweed plant response rating (pigweed; Rate 62 g/ha, Postemergence): 0
- Plant response rating, Redroot pigweed (pigweed; [4]): 0
- Plant response rating, Rape (rape; [1]): 0
- Plant response rating, Rape (rape; [2]): 0
- Plant response rating, Rape (rape; [3]): 0
- Rape plant response rating (0 to 10 scale) (rape; Preemergence, Rate 125 g/ha): 0
- Rape plant response rating (rape; Preemergence, Rate 250 g/ha): 0
- Rape plant response rating (rape; Preemergence, Rate 500 g/ha): 2
- Rape plant response rating (rape; Rate 62 g/ha, Postemergence): 0
- Plant response rating, Rape (rape; [4]): 0
- Plant response rating, Soybean (soybean; [1]): 2
- Plant response rating, Soybean (soybean; [2]): 3
- Plant response rating, Soybean (soybean; [3]): 0
- Soybean plant response rating (0 to 10 scale) (soybean; Preemergence, Rate 125 g/ha): 0
- Soybean plant response rating (soybean; Preemergence, Rate 250 g/ha): 0
- Soybean plant response rating (soybean; Preemergence, Rate 500 g/ha): 0
- Soybean plant response rating (soybean; Rate 62 g/ha, Postemergence): 0
- Plant response rating, Soybean (soybean; [4]): 3
- Plant response rating, Velvetleaf (velvetleaf; [1]): 0
- Plant response rating, Velvetleaf (velvetleaf; [2]): 0
- Plant response rating, Velvetleaf (velvetleaf; [3]): 0
- Velvetleaf plant response rating (0 to 10 scale) (velvetleaf; Preemergence, Rate 125 g/ha): 0
- Velvetleaf plant response rating (velvetleaf; Preemergence, Rate 250 g/ha): 0
- Velvetleaf plant response rating (velvetleaf; Preemergence, Rate 500 g/ha): 0
- Velvetleaf plant response rating (velvetleaf; Rate 62 g/ha, Postemergence): 0
- Plant response rating, Velvetleaf (velvetleaf; [4]): 0
- Plant response rating, Wheat (wheat; [1]): 0
- Plant response rating, Wheat (wheat; [2]): 0
- Plant response rating, Wheat (wheat; [3]): 0
- Wheat plant response rating (0 to 10 scale) (wheat; Preemergence, Rate 125 g/ha): 0
- Wheat plant response rating (wheat; Preemergence, Rate 250 g/ha): 0
- Wheat plant response rating (wheat; Preemergence, Rate 500 g/ha): 0
- Wheat plant response rating (wheat; Rate 62 g/ha, Postemergence): 0
- Plant response rating, Wheat (wheat; [4]): 0
- Plant response rating, Wild oats (wild oat; [1]): 0
- Plant response rating, Wild oats (wild oat; [2]): 0
- Plant response rating, Wild oats (wild oat; [3]): 0
- Wild oats plant response rating (0 to 10 scale) (wild oat; Preemergence, Rate 125 g/ha): 0
- Wild oats plant response rating (wild oat; Preemergence, Rate 250 g/ha): 0
- Wild oats plant response rating (wild oat; Preemergence, Rate 500 g/ha): 3
- Wild oats plant response rating (wild oat; Rate 62 g/ha, Postemergence): 0
- Plant response rating, Wild oats (wild oat; [4]): 0
- Plant response rating, Nutsedge (purple nutsedge; [1]): 0
- Plant response rating, Nutsedge (purple nutsedge; [2]): 0
- Plant response rating, Nutsedge (purple nutsedge; [3]): 0
- Nutsedge plant response rating (0 to 10 scale) (purple nutsedge; Preemergence, Rate 125 g/ha): 0
- Nutsedge plant response rating (purple nutsedge; Preemergence, Rate 250 g/ha): 0
- Nutsedge plant response rating (purple nutsedge; Rate 62 g/ha, Postemergence): 0
- Plant response rating, Nutsedge (purple nutsedge; [4]): 0
- Plant response rating, Rice (rice; [5]): 0
- Rice plant response rating (rice; [6]): 0
- Plant response rating, Rice (rice; [7]): 0
- Plant response rating, Rice (rice; [8]): 0
- Plant response rating, Ducksalad (duck salad; [5]): 0
- Ducksalad plant response rating (duck salad; [6]): 0
- Plant response rating, Ducksalad (duck salad; [7]): 0
- Plant response rating, Ducksalad (duck salad; [8]): 0
